Measurements reported in article PMC6968694 (Emerging Microbes & Infections, 2020).

Target: T1, MtbPurT (Mycobacterium tuberculosis, UniProt P95197)
T1 construct: gene purT
Assay: biochemical

T1 sequence (P95197 entry or part of it): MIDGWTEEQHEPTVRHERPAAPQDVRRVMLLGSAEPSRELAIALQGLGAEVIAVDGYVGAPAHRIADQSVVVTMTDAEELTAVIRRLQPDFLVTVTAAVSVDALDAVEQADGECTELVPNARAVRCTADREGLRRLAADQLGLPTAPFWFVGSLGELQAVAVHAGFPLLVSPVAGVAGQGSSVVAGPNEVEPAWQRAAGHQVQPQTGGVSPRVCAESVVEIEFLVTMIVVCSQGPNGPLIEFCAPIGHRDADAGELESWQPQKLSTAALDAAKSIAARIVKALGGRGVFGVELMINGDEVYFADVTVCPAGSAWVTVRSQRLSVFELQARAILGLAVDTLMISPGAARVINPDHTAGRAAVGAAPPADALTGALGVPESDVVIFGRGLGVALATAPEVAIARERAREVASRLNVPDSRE

Question: For `Nc1ncnc2c1ncn2[C@@H]1O[C@H](CO[P@](=O)(O)O[P@](=O)(O)O[P@@](=O)(O)S)[C@@H](O)[C@H]1O` [ATPγS], which Kd is on record?
Answer: 207 ± 8.02 µM
